Data reported in patent US6737383B1, “Herbicidal oxadiazolidines” (priority 1999, dated 2004).

Tests used:
soybean = test: Test B pre/postemergence soybean; type: in vivo, Glycine max; settings: for Soybean plant response rating: scale of 0 to 10 where 0 is no effect and 10 is complete control
Method in brief: (§1)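 Response is a visual 0-to-10 score relative to untreated plants, where 0 means no effect and 10 means complete control, taken twelve to sixteen days after application. Treatments went onto soil at planting and onto foliage of 1- to 4-leaf plants, using a surfactant-containing non-phytotoxic solvent.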

smallflower flatsedge = test: Test B flood test smallflower flatsedge; type: in vivo, Cyperus difformis
Method in brief: (§2)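 Read-out is a visual response score from 0 (no effect) to 10 (complete control), assigned by comparison with untreated controls. Treatment was applied at the 2-leaf stage, and plants stayed in the greenhouse for twelve to sixteen days before scoring.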

velvetleaf = test: Test B pre/postemergence velvetleaf; type: in vivo, Abutilon theophrasti; settings: for Velvetleaf plant response rating: scale of 0 to 10 where 0 is no effect and 10 is complete control
Method in brief: as §1

wheat = test: Test B pre/postemergence wheat; type: in vivo, Triticum aestivum; settings: for Wheat plant response rating: scale of 0 to 10 where 0 is no effect and 10 is complete control
Method in brief: as §1

corn = test: Test B pre/postemergence corn; type: in vivo, Zea mays; settings: for Corn plant response rating: scale of 0 to 10 where 0 is no effect and 10 is complete control
Method in brief: as §1

duck salad = test: Test B flood test duck salad; type: in vivo, Heteranthera limosa
Method in brief: as §2

rice = test: Test B flood test rice; type: in vivo, Oryza sativa
Method in brief: as §2

wild oat = test: Test B pre/postemergence wild oat; type: in vivo, Avena fatua; settings: for Wild oats plant response rating: scale of 0 to 10 where 0 is no effect and 10 is complete control
Method in brief: as §1

surinam grass = test: Test B pre/postemergence surinam grass; type: in vivo, Brachiaria decumbens; settings: for B. signalgrass plant response rating: scale of 0 to 10 where 0 is no effect and 10 is complete control
Method in brief: as §1

morningglory = test: Test B pre/postemergence morningglory; type: in vivo, Ipomoea hederacea; settings: for Morningglory plant response rating: scale of 0 to 10 where 0 is no effect and 10 is complete control
Method in brief: as §1

blackgrass = test: Test B pre/postemergence blackgrass; type: in vivo, Alopecurus myosuroides; settings: for Blackgrass plant response rating: scale of 0 to 10 where 0 is no effect and 10 is complete control
Method in brief: as §1

crabgrass = test: Test B pre/postemergence crabgrass; type: in vivo, Digitaria sanguinalis; settings: for Crabgrass plant response rating: scale of 0 to 10 where 0 is no effect and 10 is complete control
Method in brief: as §1

bedstraw = test: Test B pre/postemergence bedstraw; type: in vivo, Galium aparine; settings: Preemergence; for Bedstraw plant response rating: scale of 0 to 10 where 0 is no effect and 10 is complete control
Method in brief: as §1

rape = test: Test B pre/postemergence rape; type: in vivo, Brassica napus; settings: for Rape plant response rating: scale of 0 to 10 where 0 is no effect and 10 is complete control
Method in brief: as §1

giant foxtail = test: Test B pre/postemergence giant foxtail; type: in vivo, Setaria faberii; settings: for Giant foxtail plant response rating: scale of 0 to 10 where 0 is no effect and 10 is complete control
Method in brief: as §1

purple nutsedge = test: Test B pre/postemergence purple nutsedge; type: in vivo, Cyperus rotundus; settings: for Nutsedge plant response rating: scale of 0 to 10 where 0 is no effect and 10 is complete control
Method in brief: as §1

[1] = Postemergence, Rate 125 g/ha, scale 0 to 10, 0 is no effect, 10 is complete control
[2] = Postemergence, Rate 250 g/ha, scale 0 to 10, 0 is no effect, 10 is complete control
[3] = Preemergence, Rate 62 g/ha, scale 0 to 10 (0 no effect, 10 complete control)
[4] = Rate 500 g/ha, Postemergence, scale 0 to 10, 0 no effect, 10 complete control
[5] = Rate 62 g/ha, flood test species, Pre-emergence, visual evaluation after twelve to sixteen days
[6] = Rate 125 g/ha, under heading Pre-emergence, flood test species, visual evaluation after twelve to sixteen days
[7] = Rate 250 g/ha, Pre-emergence, flood-test species, scale 0 to 10, 0 is no effect, 10 is complete control
[8] = Rate 500 g/ha, Pre-emergence, flood test species, scale 0 to 10 (0 no effect, 10 complete control)

CC(C)N(C(=O)n1oc(=O)n(CC2CCOC2)c1=O)c1ccc(F)cc1 (stereo not shown) [Compound 375]
2: Plant response rating, Soybean (soybean; [4]) | Plant response rating, Velvetleaf (velvetleaf; [2]) | Plant response rating, Wheat (wheat; [2]) | Wheat plant response rating (wheat; Preemergence, Rate 250 g/ha) | Corn plant response rating (0 to 10 scale) (corn; Preemergence, Rate 125 g/ha) | Corn plant response rating (corn; Preemergence, Rate 250 g/ha) | Plant response rating, Corn (corn; [4]) | Plant response rating, B. signalgrass (surinam grass; [2]) | Blackgrass plant response rating (blackgrass; Rate 62 g/ha, Postemergence) | Rape plant response rating (0 to 10 scale) (rape; Preemergence, Rate 125 g/ha) | Plant response rating, Rape (rape; [4])
8: Plant response rating, Wild oats (wild oat; [4]) | B. signalgrass plant response rating (surinam grass; Preemergence, Rate 500 g/ha) | Plant response rating, B. signalgrass (surinam grass; [4]) | Plant response rating, Blackgrass (blackgrass; [4]) | Crabgrass plant response rating (0 to 10 scale) (crabgrass; Preemergence, Rate 125 g/ha) | Rape plant response rating (rape; Preemergence, Rate 500 g/ha) | Plant response rating, Giant foxtail (giant foxtail; [2])
10: Blackgrass plant response rating (blackgrass; Preemergence, Rate 500 g/ha) | Crabgrass plant response rating (crabgrass; Preemergence, Rate 250 g/ha) | Crabgrass plant response rating (crabgrass; Preemergence, Rate 500 g/ha) | Bedstraw plant response rating (0 to 10 scale) (bedstraw; Rate 125 g/ha) | Bedstraw plant response rating (bedstraw; Rate 250 g/ha) | Bedstraw plant response rating (bedstraw; Rate 500 g/ha) | Plant response rating, Giant foxtail (giant foxtail; [3]) | Giant foxtail plant response rating (0 to 10 scale) (giant foxtail; Preemergence, Rate 125 g/ha) | Giant foxtail plant response rating (giant foxtail; Preemergence, Rate 250 g/ha) | Giant foxtail plant response rating (giant foxtail; Preemergence, Rate 500 g/ha)
3: Velvetleaf plant response rating (0 to 10 scale) (velvetleaf; Preemergence, Rate 125 g/ha) | Wheat plant response rating (wheat; Preemergence, Rate 500 g/ha) | Plant response rating, Blackgrass (blackgrass; [3])
9: Wild oats plant response rating (wild oat; Preemergence, Rate 250 g/ha) | Wild oats plant response rating (wild oat; Preemergence, Rate 500 g/ha) | Blackgrass plant response rating (blackgrass; Preemergence, Rate 250 g/ha) | Plant response rating, Crabgrass (crabgrass; [4]) | Plant response rating, Giant foxtail (giant foxtail; [4])
5: Plant response rating, Morningglory (morningglory; [2]) | Plant response rating, Blackgrass (blackgrass; [1]) | Plant response rating, Blackgrass (blackgrass; [2]) | Blackgrass plant response rating (0 to 10 scale) (blackgrass; Preemergence, Rate 125 g/ha)
6: Plant response rating, Wheat (wheat; [4]) | Plant response rating, Wild oats (wild oat; [2]) | Plant response rating, Morningglory (morningglory; [4]) | Plant response rating, Bedstraw (bedstraw; Rate 62 g/ha, scale 0 to 10 (0 no effect, 10 complete control)) | Rape plant response rating (rape; Preemergence, Rate 250 g/ha) | Plant response rating, Giant foxtail (giant foxtail; [1]) | Plant response rating, Nutsedge (purple nutsedge; [4])
0: Plant response rating, Soybean (soybean; [3]) | Soybean plant response rating (0 to 10 scale) (soybean; Preemergence, Rate 125 g/ha) | Soybean plant response rating (soybean; Preemergence, Rate 250 g/ha) | Soybean plant response rating (soybean; Preemergence, Rate 500 g/ha) | Plant response rating, S. Flatsedge (0 to 10 scale, 0 is no effect, 10 is complete control) (smallflower flatsedge; [5]) | S. Flatsedge plant response rating (0 to 10 scale, 0 is no effect, 10 is complete control) (smallflower flatsedge; [6]) | S. Flatsedge plant response rating (smallflower flatsedge; [7]) | S. Flatsedge plant response rating (smallflower flatsedge; [8]) | Plant response rating, Velvetleaf (velvetleaf; [1]) | Plant response rating, Velvetleaf (velvetleaf; [3]) | Velvetleaf plant response rating (velvetleaf; Rate 62 g/ha, Postemergence) | Plant response rating, Wheat (wheat; [1]) | Plant response rating, Wheat (wheat; [3]) | Wheat plant response rating (0 to 10 scale) (wheat; Preemergence, Rate 125 g/ha) | Wheat plant response rating (wheat; Rate 62 g/ha, Postemergence) | Plant response rating, Corn (corn; [1]) | Plant response rating, Corn (corn; [2]) | Plant response rating, Corn (corn; [3]) | Corn plant response rating (corn; Rate 62 g/ha, Postemergence) | Plant response rating, Ducksalad (0 to 10 scale, 0 is no effect, 10 is complete control) (duck salad; [5]) | Ducksalad plant response rating (0 to 10 scale, 0 is no effect, 10 is complete control) (duck salad; [6]) | Ducksalad plant response rating (duck salad; [7]) | Ducksalad plant response rating (duck salad; [8]) | Plant response rating, Rice (0 to 10 scale, 0 is no effect, 10 is complete control) (rice; [5]) | Rice plant response rating (0 to 10 scale, 0 is no effect, 10 is complete control) (rice; [6]) | Rice plant response rating (rice; [7]) | Rice plant response rating (rice; [8]) | Plant response rating, Wild oats (wild oat; [1]) | Plant response rating, Wild oats (wild oat; [3]) | Wild oats plant response rating (wild oat; Rate 62 g/ha, Postemergence) | Plant response rating, B. signalgrass (surinam grass; [1]) | Plant response rating, B. signalgrass (surinam grass; [3]) | B. signalgrass plant response rating (0 to 10 scale, 0 is no effect, 10 is complete control) (surinam grass; Preemergence, Rate 125 g/ha) | B. signalgrass plant response rating (surinam grass; Rate 62 g/ha, Postemergence) | Plant response rating, Morningglory (morningglory; [3]) | Morningglory plant response rating (0 to 10 scale) (morningglory; Preemergence, Rate 125 g/ha) | Morningglory plant response rating (morningglory; Preemergence, Rate 250 g/ha) | Morningglory plant response rating (morningglory; Preemergence, Rate 500 g/ha) | Crabgrass plant response rating (crabgrass; Rate 62 g/ha, Postemergence) | Plant response rating, Rape (rape; [1]) | Plant response rating, Rape (rape; [2]) | Plant response rating, Rape (rape; [3]) | Rape plant response rating (rape; Rate 62 g/ha, Postemergence) | Giant foxtail plant response rating (giant foxtail; Rate 62 g/ha, Postemergence) | Plant response rating, Nutsedge (purple nutsedge; [1]) | Plant response rating, Nutsedge (purple nutsedge; [2]) | Plant response rating, Nutsedge (purple nutsedge; [3]) | Nutsedge plant response rating (0 to 10 scale) (purple nutsedge; Preemergence, Rate 125 g/ha) | Nutsedge plant response rating (purple nutsedge; Preemergence, Rate 250 g/ha) | Nutsedge plant response rating (purple nutsedge; Preemergence, Rate 500 g/ha) | Nutsedge plant response rating (purple nutsedge; Rate 62 g/ha, Postemergence)
1: Plant response rating, Soybean (soybean; [1]) | Plant response rating, Soybean (soybean; [2]) | Soybean plant response rating (soybean; Rate 62 g/ha, Postemergence) | Plant response rating, Morningglory (morningglory; [1]) | Morningglory plant response rating (morningglory; Rate 62 g/ha, Postemergence)
4: Velvetleaf plant response rating (velvetleaf; Preemergence, Rate 250 g/ha) | Plant response rating, Velvetleaf (velvetleaf; [4]) | Wild oats plant response rating (0 to 10 scale) (wild oat; Preemergence, Rate 125 g/ha) | B. signalgrass plant response rating (surinam grass; Preemergence, Rate 250 g/ha) | Plant response rating, Crabgrass (crabgrass; [1])
7: Velvetleaf plant response rating (velvetleaf; Preemergence, Rate 500 g/ha) | Corn plant response rating (corn; Preemergence, Rate 500 g/ha) | Plant response rating, Crabgrass (crabgrass; [2]) | Plant response rating, Crabgrass (crabgrass; [3])
